Several values for one entry are separate records, joined by “and”; a condition that tells them apart may be missing. Equal values may be shown once.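 Growth conditions: 96-well plates. Treatment: test compound, 48 hours, 5 concentrations. Analysis: linear interpolation between bracketing concentrations; unreached endpoints set to highest concentration. GI50 is the concentration that inhibits growth by half. TGI: concentration producing complete growth inhibition.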
Assays:
Assay in all cases: NCI anticancer screen, dose series, 48 h
M14 melanoma = system: M14 melanoma
MOLT-4 leukemia = system: MOLT-4 leukemia
HOP-92 NSCLC = system: HOP-92 NSCLC
COLO 205 colon = system: COLO 205 colon
EKVX NSCLC = system: EKVX NSCLC
SF-295 CNS = system: SF-295 CNS
HT29 colon = system: HT29 colon
U251 CNS = system: U251 CNS
SK-OV-3 ovarian = system: SK-OV-3 ovarian
IGROV1 ovarian = system: IGROV1 ovarian
MALME-3M melanoma = system: MALME-3M melanoma
HCT-15 colon = system: HCT-15 colon
HOP-62 NSCLC = system: HOP-62 NSCLC
RXF 393 renal = system: RXF 393 renal
SK-MEL-5 melanoma = system: SK-MEL-5 melanoma
SN12C renal = system: SN12C renal
OVCAR-4 ovarian = system: OVCAR-4 ovarian
DU-145 prostate = system: DU-145 prostate
SR leukemia = system: SR leukemia
BT-549 breast = system: BT-549 breast
HCC-2998 colon = system: HCC-2998 colon
NCI-H522 lung = system: NCI-H522 lung
RPMI-8226 leukemia = system: RPMI-8226 leukemia
OVCAR-3 ovarian = system: OVCAR-3 ovarian
KM12 colon = system: KM12 colon
NCI-H460 lung = system: NCI-H460 lung
SW-620 colon = system: SW-620 colon
LOX IMVI melanoma = system: LOX IMVI melanoma
CCRF-CEM leukemia = system: CCRF-CEM leukemia

In the case of CC1CCCc2sc3nc(NNC(=O)c4cnccn4)n(-c4ccccc4)c(=O)c3c21 (stereo not drawn), the GI50 (M14 melanoma) is reported as 0.321 µM and 0.205 µM, the TGI (M14 melanoma) is reported as 5.44 µM and 2.65 µM and the GI50 (MOLT-4 leukemia) is reported as 0.343 µM and 0.256 µM. The TGI (MOLT-4 leukemia) was greater than 100 µM, the GI50 (HOP-92 NSCLC) was 0.996 µM and 0.397 µM and the TGI (HOP-92 NSCLC) was 21.8 µM and 16.6 µM. For the same compound, the GI50 (COLO 205 colon) was 0.327 µM and 0.284 µM, the TGI (COLO 205 colon) was 3.52 µM and 25 µM and the GI50 (EKVX NSCLC) was 0.383 µM and 0.258 µM. The TGI (EKVX NSCLC) was greater than 100 µM, the GI50 (SF-295 CNS) was 0.479 µM and 0.159 µM and the TGI (SF-295 CNS) was 15.4 µM and 7.81 µM. The GI50 (HT29 colon) was 0.975 µM and 0.461 µM, the TGI (HT29 colon) was 49 µM and 17.6 µM and the GI50 (U251 CNS) was 0.26 µM and 0.182 µM. The TGI (U251 CNS) was > 40.8 µM and 30.1 µM, the GI50 (SK-OV-3 ovarian) was 0.489 µM and 0.544 µM and the TGI (SK-OV-3 ovarian) was 8.42 µM and 8.2 µM. For the same compound, the GI50 (IGROV1 ovarian) was 0.327 µM and 0.172 µM, the TGI (IGROV1 ovarian) was 16.9 µM and 13.3 µM and the GI50 (MALME-3M melanoma) was 0.657 µM and 0.345 µM. The TGI (MALME-3M melanoma) was 11.6 µM and 11.1 µM, the GI50 (HCT-15 colon) was 0.237 µM and 0.0717 µM and the TGI (HCT-15 colon) was 34.4 µM and 17.6 µM. The GI50 (HOP-62 NSCLC) was 0.385 µM and 0.203 µM, the TGI (HOP-62 NSCLC) was greater than 100 µM and the GI50 (RXF 393 renal) was 0.955 µM and 0.454 µM. The TGI (RXF 393 renal) was 5.48 µM and 3.84 µM, the GI50 (SK-MEL-5 melanoma) was 0.371 µM and 0.205 µM and the TGI (SK-MEL-5 melanoma) was 1.81 µM and 0.933 µM. The GI50 (SN12C renal) was 0.468 µM and 0.368 µM, the TGI (SN12C renal) was 15.9 µM and 13.7 µM and the GI50 (OVCAR-4 ovarian) was 0.211 µM and 0.215 µM. For the same compound, the TGI (OVCAR-4 ovarian) was greater than 100 µM, the GI50 (DU-145 prostate) was 0.598 µM and 0.339 µM and the TGI (DU-145 prostate) was > 39.8 µM and 18.9 µM. The GI50 (SR leukemia) was 0.361 µM and 0.11 µM, the TGI (SR leukemia) was greater than 32.6 µM and the GI50 (BT-549 breast) was 0.813 µM and 0.472 µM. The TGI (BT-549 breast) was 28.6 µM and 12.4 µM, the GI50 (HCC-2998 colon) was 0.55 µM and 0.324 µM and the TGI (HCC-2998 colon) was 26.3 µM and 16.3 µM. For the same compound, the GI50 (NCI-H522 lung) was 0.392 µM and 0.327 µM, the TGI (NCI-H522 lung) was 10.2 µM and 16.6 µM and the GI50 (RPMI-8226 leukemia) was 0.563 µM and 0.277 µM. For the same compound, the TGI (RPMI-8226 leukemia) was 17.9 µM and 16.6 µM, the GI50 (OVCAR-3 ovarian) was 0.288 µM and 0.249 µM and the TGI (OVCAR-3 ovarian) was 22.2 µM and 12.5 µM. For the same compound, the GI50 (KM12 colon) was 0.428 µM and 0.347 µM, the TGI (KM12 colon) was > 49.1 µM and 32.5 µM and the GI50 (NCI-H460 lung) was 0.25 µM and 0.121 µM. The TGI (NCI-H460 lung) was 11.4 µM and 2.27 µM, the GI50 (SW-620 colon) was 0.483 µM and 0.463 µM and the TGI (SW-620 colon) was greater than 100 µM. For the same compound, the GI50 (LOX IMVI melanoma) was 0.259 µM and 0.195 µM, the TGI (LOX IMVI melanoma) was 3.8 µM and 8.06 µM and the GI50 (CCRF-CEM leukemia) was 0.295 µM and 0.169 µM. The TGI (CCRF-CEM leukemia) was greater than 100 µM.

From PubChem BioAssay (NCI)
